Results: patent US20080039453A1, “Enantiomerically pure R-etifoxine, pharmaceutical compositions thereof and methods of their use” (priority 2006, published 2008)

Experiments:
[1] = system: human GABAA receptor subunits (α1β1-3γ2L GABAA receptors); assay: Modulation of GABA-evoked currents in Xenopus oocytes (2-electrode clamp), GABA subunit selectivity; assay type: cell-based; settings: for GABA subunit selectivity: modulation of GABA EC10-evoked currents in Xenopus oocytes expressing α1β1-3γ2L, FIGS. 4A and 4B
Method: GABA subunit selectivity of etifoxine enantiomers was measured based on their ability to modulate the GABA-evoked currents in Xenopus oocytes.
Receptor mRNA preparation: cDNA clones encoding human GABAA receptor subunits were obtained from commercial sources. mRNA was prepared using conventional techniques with commercially-available “mMessage machine” kits (Ambion). Individual mRNAs (˜1 μg/μL) were stored in aliquots at −80° C.
mRNA injections into Xenopus oocytes: Preparation and micro-injection of oocytes were performed as reported in detail previously (see, Whittemore et al., 1996, Mol Pharmacol 50: 1364-1375). Individual oocytes were injected with 5-50 ng of mRNA at 5:1:1 (GABA). For example, individual oocytes were injected with a 5:1:1 mixture of α1, β1-3, and γ2L (˜5-50 ng of each subunit per cell) to produce expression of α1β1-3γ2L GABAA receptors. Following injections, oocytes were maintained at 16-17° C. in Barth's medium containing (in mM): NaCl, 88; KCl, 1; CaCl2, 0.41; Ca(NO3)2, 0.33; MgSO4, 0.82; NaHCO3, 2.4; HEPES 5; pH=7.4, with 0.1 mg/ml gentamycin sulfate.
Oocyte Electrophysiological recordings: Individual oocytes were placed on a nylon mesh in a 35 mm dish, perfused with frog Ringer (see, Whittemore et al., supra), and voltage clamped at a holding potential of −70 mV. In some cases, simple voltage steps were made to test voltage-dependence. Oocytes were perfused with fresh Ringer or exposed to GABA ±modulators using a custom-made gravity-driven perfusion system consisting of a linear array of 3 capillary tubes. The concentration of GABA used to evoke control currents was adjusted for each individual oocyte to be 10% of the maximal current (EC10) measured in that cell. The concentration of GABA required to evoke EC10 ‘control’ currents varied between ˜2 and 12 μM. […] Data are expressed as % of control currents (% modulation=100*[(modulated current/GABA control current)−1].

[2] = system: mouse formalin pain model; assay: Mouse formalin pain model (late phase licking); assay type: in vivo; settings: male NSA mice, 60 mg/kg i.p., 30 minutes prior to formalin; FIG. 5
Method: The analgesic effect of test compounds was assessed in a mouse formalin pain model (Hole et al., 1993, Pain 53:247-254). Male NSA mice weighing between 27 and 30 g were housed with access to food and water ad libitum until the test date. On the day of testing, they were given a period of 1 h to adjust to the test chamber. Test compounds or vehicle control (75% polyethylene glycol in 5% dextrose+water) were administered i.p. at 30 minutes prior to the administration of formalin. A solution of 20 μl of 2.5% formalin was then injected subcutaneously into the dorsal side of the hind paw of the test mouse. Immediately following formalin injection, the mice were observed over the next 50 min and the time spent licking the injected hind paw was recorded. The observation time was broken down into 5 minute “bins”, with 10 bins in total. The first 5-min bin is the early phase, considered to be reflective of acute pain. Bins three to ten make up the late phase, considered a measure of chronic inflammatory pain. The results for the late phase are expressed as the averaged mean time (in seconds) that mice spent licking in a 5-min period.
Dose-response relationship was conducted in the range of 3 to 60 mg/kg. Statistical differences in response were determined by one-way analysis of variance with the Dunnett's post-hoc test by using the Prism3 statistical software (GraphPad, Inc., San Diego, Calif.).

Compound	GABA subunit selectivity [1]	analgesic effect in the formalin test (late phase licking) [2]	selectivity for β2 subunit versus β1 subunit ([1]; modulation of GABA EC10-evoked currents in Xenopus oocytes, FIG. 4B)
CCNC1=Nc2ccc(Cl)cc2C(C)(c2ccccc2)O1 (single isomer, unassigned) [R-etifoxine, 6-chloro-2-(ethylamino)-4-methyl-4-phenyl-4H-3,1-benzoxazine]	little or no GABA subunit selectivity	active	
CCNC1=Nc2ccc(Cl)cc2C(C)(c2ccccc2)O1 (single isomer, unassigned) [S-etifoxine, 6-chloro-2-(ethylamino)-4-methyl-4-phenyl-4H-3,1-benzoxazine]	shows selectivity for GABA receptor comprising β subunit		more selective for β2 subunit than β1 subunit
